Results as given in patent US20150025077A1 (COYOTE PHARMACEUTICALS, INC., priority 2012, published 2015).
Where “and” joins values, the source holds several entries; their conditions need not be identical. Equal entries are not always repeated.

Experiments:
[1] = Pharmacokinetics of CNS-102 in rats (IV, oral); format: in vivo; settings: rat, 24 mg/kg oral
Procedure: Rats were administered a single dose of CNS-102 either intravenously (12 mg/kg) or orally (24 mg/kg), and blood samples were taken to measure the average plasma concentrations of CNS-102 over time.
The formulation for this study includes the following: […]
Formulations: (Dose: 24 mg/kg; Study Date: 4-16-2012)

HSP70 [2] = test: HSP70 expression in cortex and hippocampus in vivo, western blot; set-up: species or system rat; HSP70 Expression (average, western blot): scale not given here; settings: for delta HSP70 expression, CNS-102 minus PBS: 12 mg/kg oral
Procedure: The time course of protein expression, as measured by western blot for HSP70, was determined in triplicate for hippocampus, and cortex tissue samples taken from each of 5 animals per group at each of four time points (24, 48, 72, and 96 h) after treatment with either PBS or 12 mg/kg CNS-102, administered orally. The average expression for each treatment group is calculated at each time point for each tissue using PROC MIXED in SAS and are tabulated, along with the difference (delta) between treatment averages and a p-value comparing the difference to zero, below.

[3] = tested on: Rat primary motor neurons; test: Axon extension of rat primary motor neurons; format: cell-based; settings: 72 hrs; read-out: EC50 (cells extending axons)
Procedure: Rat primary motor neurons were isolated from embryonic spinal cords in accordance with the method of Henderson et al.; J Cohen and G P Wilkin (ed.), Neural Cell Culture, (1995) p69-81 which is herein incorporated by reference in its entirety. Briefly, spinal cords were dissected from day 15 embryo (E15) and incubated in a trypsin solution, and followed by DNase treatment to release spinal cord cells from tissue fragments. The cell suspension was centrifuged to remove tissue fragments. Then motor neurons were enriched by density gradient centrifugation.
Motor neurons were cultured in serum-free neurobasal medium containing insulin, forskolin, 3-isobutyl-1-methylxanthine, neurotrophic factors, Bovine serum albumin, selenium, transferrin, putrescine, progesterone and B27 supplement in tissue culture plate coated with poly-ornithine and laminin.
Rat primary motor neurons were prepared and cultured as described in Example 13. […] The cells extending axons were counted in five different fields for each treatment after 72 hrs. Percentage of positive cells relative to total cells in the same magnification field was calculated and the results were expressed as means+/−standard deviations, n=5.

Sprague-Dawley rats = test: Kainic acid induced neurodegeneration and seizure behaviors in rats (Examples 20, 21); format: in vivo, rat; settings: oral
Source text: Seizure behaviors were observed and scored (Ref. R. J. Racine, Modification of seizure activity by electrical stimulation: II. Motor seizure, Electroencephalogr. Clin. […] Modifications were made for the methods). Brain tissues of rats were sectioned on histology slides, and neurons in hippocampus tissues were stained by Nissl. Neurons in dentate gyrus tissues damaged by Kainic acid were quantified. The Memantine composition used in comparison refers to a commercially available NMDA receptor […]. […] Seizure behaviors were observed and scored (Ref. R. J. Racine, Modification of seizure activity by electrical stimulation: II. Motor seizure, Electroencephalogr. Clin. […] Modifications were made for the methods). Brain tissues of rats were sectioned on histology slides, and neurons in hippocampus tissues were stained by Nissl. Neurons damaged by Kainic acid and behavior scores were quantified.

HSP70 [4] = test: HSP70 gene expression in rat brain tissue, qRT-PCR; format: in vivo; settings: 12 mg/kg oral
Procedure: […] Expression of selected HSPs was detected using qRT-PCR with expression of the GAPDH gene used as the control. To represent the effect of CNS-102 on HSP expression, mean fold change is calculated as CNS-102 treated/PBS treated for each HSP at each time point.

CC(=O)CC/C=C(\C)CC/C=C(\C)CC/C=C(\C)CCC=C(C)C [CNS-102]
Plasma Concentration of CNS-102 ([1]; 240 min, individual rats 4-6, BQL set to zero): 0 ng/mL
Plasma Concentration of CNS-102 ([1]; 480 min, average): 489.7 ng/mL
Plasma Concentration of CNS-102 ([1]; 720 min, average): 47.2 ng/mL
Plasma Concentration of CNS-102 ([1]; 720 min, individual rats 4-6, BQL set to zero): 0 ng/mL
Plasma Concentration of CNS-102 ([1]; 1440 min, average): 0.0 ng/mL
Plasma Concentration of CNS-102 ([1]; 1440 min, individual rats 4-6, BQL set to zero): 0 ng/mL
AUC(0-inf) ([1]; average): 204878 ng·min/mL
AUC(0-last) ([1]; average): 189114 ng·min/mL
Cmax ([1]; average): 752.9 ng/mL
Tmax ([1]; average): 340 min
t1/2 ([1]; average): 1.72 h
AUC(0-inf) ([1]; individual rats 4-6, 24 mg/kg): 234242 ng·min/mL and 157666 ng·min/mL and 222724 ng·min/mL
AUC(0-last) ([1]; individual rats 4-6, 24 mg/kg): 214144 ng·min/mL and 130474 ng·min/mL and 222724 ng·min/mL
Cmax ([1]; individual rats 4-6, 24 mg/kg): 768 ng/mL and 898.2 ng/mL and 592.5 ng/mL
F (0-inf) ([1]; individual rats 4-6, 24 mg/kg): 56.1% and 37.8% and 53.4%
F (0-last) ([1]; individual rats 4-6, 24 mg/kg): 93.0% and 56.7% and 96.7%
Tmax ([1]; individual rats 4-6, 24 mg/kg): 480 min (2×) and 60 min
t1/2 ([1]; individual rats 4-6, 24 mg/kg): 1.64 h and 2.895 h and 0.613 h
HSP70 Expression (average, western blot) (HSP70 [2]; Cortex, 24 hours after 12 mg/kg oral, PBS −0.256): −0.016
delta HSP70 expression, CNS-102 minus PBS (HSP70 [2]; Cortex, 24 hours): 0.24
HSP70 Expression (average, western blot) (HSP70 [2]; Cortex, 48 hours after 12 mg/kg oral, PBS −0.56): −0.45
delta HSP70 expression, CNS-102 minus PBS (HSP70 [2]; Cortex, 48 hours): 0.11
HSP70 Expression (average, western blot) (HSP70 [2]; Cortex, 72 hours after 12 mg/kg oral, PBS 0.01): 0.14
delta HSP70 expression, CNS-102 minus PBS (HSP70 [2]; Cortex, 72 hours): 0.13
HSP70 Expression (average, western blot) (HSP70 [2]; Cortex, 96 hours after 12 mg/kg oral, PBS −0.15): 0.04
delta HSP70 expression, CNS-102 minus PBS (HSP70 [2]; Cortex, 96 hours): 0.19
HSP70 Expression (average, western blot) (HSP70 [2]; Hippocampus, 24 hours after 12 mg/kg oral, PBS −0.072): −0.159
delta HSP70 expression, CNS-102 minus PBS (HSP70 [2]; Hippocampus, 24 hours): −0.088
HSP70 Expression (average, western blot) (HSP70 [2]; Hippocampus, 48 hours after 12 mg/kg oral, PBS −0.18): 0.02
delta HSP70 expression, CNS-102 minus PBS (HSP70 [2]; Hippocampus, 48 hours): 0.2
HSP70 Expression (average, western blot) (HSP70 [2]; Hippocampus, 72 hours after 12 mg/kg oral, PBS −0.2): −0.06
delta HSP70 expression, CNS-102 minus PBS (HSP70 [2]; Hippocampus, 72 hours): 0.14
HSP70 Expression (average, western blot) (HSP70 [2]; Hippocampus, 96 hours after 12 mg/kg oral, PBS −0.49): −0.32
delta HSP70 expression, CNS-102 minus PBS (HSP70 [2]; Hippocampus, 96 hours): 0.17
EC50 [3]: 0.92 nM
Mean of Hippocampus CA3 Neurons Damaged (Sprague-Dawley rats; 3 mg/Kg rat): 10.25 Arbitrary units
Mean of Seizure behaviors scores (Sprague-Dawley rats; 3 mg/Kg rat): 27.5
Mean of Hippocampus CA3 Neurons Damaged (Sprague-Dawley rats; 12 mg/Kg rat): 10.16 Arbitrary units
Mean of Seizure behaviors scores (Sprague-Dawley rats; 12 mg/Kg rat): 22.5
Mean of Hippocampus CA3 Neurons Damaged (Sprague-Dawley rats; 25 mg/Kg rat): 1.97 Arbitrary units
Mean of Seizure behaviors scores (Sprague-Dawley rats; 25 mg/Kg rat): 25.75
Seizure behaviors scores (Sprague-Dawley rats; Kainic acid, vehicle 34): 18.8
HSP70 mean fold change (CNS-102 treated/PBS treated), mean ± SD (HSP70 [4]; 24 h): 1.18 ± 0.01
HSP70 mean fold change (CNS-102 treated/PBS treated), mean ± SD (HSP70 [4]; 48 h): 1.48 ± 0.02
HSP70 mean fold change (CNS-102 treated/PBS treated), mean ± SD (HSP70 [4]; 72 h): 1.81 ± 0.01
HSP70 mean fold change (CNS-102 treated/PBS treated), mean ± SD (HSP70 [4]; 96 h): 1.58 ± 0.03
